# Structures can show the parent of a compound that is named as a salt. Where two headings read alike, the source gives them in different places. Ends that are not written are not given here.
# Tests used:
# [1] = test system: I/H-induced ET-1 release in isolated perfused guinea pig lungs; test: Isolated Perfused Guinea Pig Lung Method (ischemia/hypoxia, I/H); format: in vivo; settings: for elevation in PIP produced by I/H (FIG. 4): subcutaneous
# Procedure: The method is as described by Vemulapalli et al., in J. PharmacoL Exp. Therap., 262, 3 (1992), pp. 1062-1069. Briefly, male Dunkin-Hartley guinea pigs (400-600 g) are anesthetized with pentobarbital 30 mg/kg, ip. The trachea is cannulated to facilitate respiration. The right jugular vein is cannulated to administer saline vehicle or test compound, or compounds are administered orally or subcutaneously. Ten minutes after the administration of saline vehicle or test compound, a thoracotomy is performed and the trachea, lungs and heart are removed intact and placed in warmed Tyrode's buffer (34°-35° C.) of the following composition in mM: NaCl 120, KCl 4.8, MgSO4.7H2 O 1.2, KH2 PO4 1.2, NaHCO3 25, CaCl2.2H2 O […], glucose 11 and BSA 0.5%. The pulmonary artery and trachea are cannulated and the lungs are mounted on a perfusion apparatus. Lungs are perfused at a rate of 3.2 ml/min via the pulmonary artery with oxygenated (95% O 2 and 5% CO2) Tyrode's solution maintained at 34°-35° C. The lungs are mechanically ventilated with room air with a volume of 2.5 ml/stroke and 50 strokes/min. Pulmonary insufflation pressure (PIP) is monitored through a side arm of the perfusion apparatus with a Statham pressure transducer and recorded on a Grass polygraph. Lungs are allowed to stabilize for 15 min. Lung effluents (50 ml) are collected every 15 min into chilled polypropylene centrifuge tubes (Corning) containing 100 μl each of aprotinin (200 kallikrein inhibitory units/ml) and soybean trypsin inhibitor (20N-α-benzoyl-L-arginine ethyl ester units/ml). Ischemia-hypoxia (I/H) is produced by cessation of ventilation and perfusion for 15 min followed by reperfusion and reventilation for 60 min. At the end of the experiment, the lungs are tested for cardiopulmonary reactivity by challenging with 5-hydroxy-tryptamine (0.5 mg) directly into the lungs via a pulmonary artery cannula.
# In a separate study, anesthetized guinea pigs are administered saline vehicle or test compound. Ten minutes later, the lungs are removed and mounted on a perfusion apparatus as described above. After an equilibration period of 15 min, BET-1 (30 μg over 15 min) or ET-1 (0.6 μg over 15 min) is infused directly into the perfusion medium and the effects on PIP in vehicle and test compound-treated guinea pig lungs are assessed.
# FIGS. 3 to 6 show the results of four compounds of the invention on I/H-induced ET-1 release in isolated perfused guinea pig lungs. The compounds include Compounds A and B, identified above, and: […]
# ECE [2] = test: BET Challenge Method (pressor response to BET-1 in anesthetized rats); settings: BET-1 5 μg/kg
# Procedure: ECE in vivo activity is determined as described by Vemulapalli et al.,in Life Sciences, 53 (1993), pp. 783-793. Briefly, male Charles River CD rats (Wilmington, Mass.) weighing 250-275 g are anesthetized with Inactin, 100 mg/kg, ip. The trachea is catheterized. The right carotid artery and the right jugular vein are cannulated to record blood pressure (BP) and to infuse drugs, respectively. […] The rectal temperature is kept at 37° C. After an equilibration period of 15-30 min, the rats are infused with saline vehicle (20 μl/min) or test compounds (0.01-0.25 mg/kg/min) throughout the study. Thirty minutes after the start of infusion, the rats are challenged with BET-1 (5 μg/kg) via the venous catheter, and the BP is monitored for another 15 min.
# [3] = S. Bertenshaw, et al, J. Med. Chem., 36(1993); cited from earlier work
# ECE [4] = target: T1, ECE (Cavia porcellus, UniProt P97739); test: In vitro ECE assay (inhibition of [125I]BET-1 to [125I]ET-1 conversion, lubrol-treated guinea pig lung membrane); format: biochemical; settings: L-GPLGM
# T1 construct: tissue Keystone Biologicals, Cleveland, Ohio; host or cells: frozen guinea pig lungs; lubrol PX-treated lung membranes
# T1 sequence (P97739 1-754): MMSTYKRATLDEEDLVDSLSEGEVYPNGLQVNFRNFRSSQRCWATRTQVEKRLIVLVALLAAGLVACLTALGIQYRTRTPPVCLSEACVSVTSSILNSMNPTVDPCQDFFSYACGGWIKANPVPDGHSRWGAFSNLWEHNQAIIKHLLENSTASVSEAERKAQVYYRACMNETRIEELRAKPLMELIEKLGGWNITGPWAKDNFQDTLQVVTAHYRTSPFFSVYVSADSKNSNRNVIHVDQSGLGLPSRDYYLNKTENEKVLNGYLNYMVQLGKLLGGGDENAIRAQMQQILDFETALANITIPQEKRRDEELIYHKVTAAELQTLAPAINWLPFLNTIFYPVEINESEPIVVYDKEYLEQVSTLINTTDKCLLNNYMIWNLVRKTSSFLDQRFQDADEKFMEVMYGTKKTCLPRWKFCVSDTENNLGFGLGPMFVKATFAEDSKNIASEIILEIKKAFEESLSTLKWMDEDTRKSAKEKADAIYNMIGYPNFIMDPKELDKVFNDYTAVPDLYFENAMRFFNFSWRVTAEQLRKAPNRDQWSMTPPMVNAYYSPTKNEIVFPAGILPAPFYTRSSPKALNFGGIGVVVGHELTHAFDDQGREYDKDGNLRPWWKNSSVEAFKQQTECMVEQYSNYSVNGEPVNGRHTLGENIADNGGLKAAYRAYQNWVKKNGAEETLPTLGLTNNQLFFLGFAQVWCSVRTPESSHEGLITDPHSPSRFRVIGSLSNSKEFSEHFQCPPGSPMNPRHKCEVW
# Description: The ECE assay is based on the quantitative determination of [^125 l]ET-1 released from [^125 l]BET-1 labeled on Tyrosine-13 by binding to the membrane-bound ET receptor. […] GPLGM was also found to contain a high density of ET receptors. Thus, this preparation was utilized as a source of both ECE and a saturating concentration of ET receptors for the quantitative determination of [251l]ET-1 from the conversion of [125l ]BET-1. Under selected experimental conditions of the ECE assay, specific [125l]ET-1 bound was directly related to ECE activity. Assays were carried out in the presence of varying concentrations of test compounds to evaluate their efficacy in inhibiting ECE activity.
# Frozen guinea pig lungs (Keystone Biologicals,Cleveland, Ohio) are weighed and homogenized in 10 times gram tissue weight of solution A (50 mM Tris-HCl, pH 7.4, 0.25M sucrose, and 2 mM EDTA) using a Polytron tissue homogenizer (probe PTA-20S). Homogenization is repeated four times at speed setting seven each for 10 s and with 5-8 min intervals on ice in between homogenization. Homogenates are spun for 30 min at 2000 g (4100 rpm in an SS34 rotor or 3800 rpm in an SA-600 rotor). Supernatants containing membranes are carefully decanted and saved. Pellets are rehomogenized in solution A as described, and homogenates are spun at 2000 g for 30 min. Supernatants are removed, mixed with the supernatants from the first spin, and spun at 37000 rpm in a 45 Ti rotor (107022 g) for 60 min. Pellets containing membranes are suspended in solution B (10 mM Tris-HCl, pH 7.4, and 0.125M sucrose) using a Dounce homogenizer. Samples are divided into 1 ml fractions, rapidly frozen in a dry ice methanol bath, and stored at -80° C. All steps are carried out at 4° C.
# GPLGM fractions prepared as described above are thawed and resuspended at a concentration of 1 mg membrane protein/mL in a solution containing 0.06% lubrol PX, 50 mM Tris-HCl (pH 7.4), and 100 mM NaCl. Stir the mixture for 1 h and then spin for 1 h at 37000 rpm in a 45 Ti rotor (107022 g). Discard the supernatants and resuspend the pellets in a solution containing 50 mM Tris-HCl (pH 7.4), and 100 mM NaCl using a Dounce homogenizer, and adjust the final volume to half the original volume. Spin the homogenates for 1 h at 37000 rpm in a 45 Ti rotor (107022 g). Suspend the membrane pellets in solution B and treat as described above. All steps are performed at 4° C.
# ECE Assay: Samples of L-GPLGM containing 20 μg protein are incubated in a solution containing 100 mM Tris-HCl (pH 7), 100 mM NaCl, and 5 mg/ml BSA (Fraction V, 98-99% albumin) (Sigma Chemical Co.) at a final reaction volume of 100 μL. The ECE assay is initiated by the addition of [^125 l]BET-1 to obtain a final concentration of 500 pM. Reactions are carried out for 30 min at 37° C. Reactions are terminated by addition of 4 mL of solution C (10 mM Tris-HCl, pH 7.4, and 150 mM NaCl) at 4° C. followed by rapid filtration on Whatman GF/B glass microfiber filters. Filters are presoaked for 1 h at 4° C. in a solution containing 50 mM Tris-HCl (pH 7.4), 10 mg/mL BSA, and 0.1% sodium azide. Wash test tubes and filters four times with 4 mL of solution C at 4° C., and count radioactivity retained on the filters in a γ counter. Non-specific binding is determined in the presence of 1 μM of unlabeled ET-1 (Peninsula Laboratories, Inc., Belmont, Calif.) in the reaction mixture. All reactions are performed in duplicate.
# To test the effect of test compounds on ECE activity, ECE assays are carried out in the presence of varying concentrations of the compounds. Assays are initiated following a 2 h incubation of L-GPLGM with the compound at 4° C. ECE activity in the presence of compounds is expressed as a percentage of control ECE activity of the membrane preparation, which is determined simultaneously.
compound,measurement,setting,value
"CC(C)CC(CP(=O)(O)C(Cc1ccccc1)NC(=O)C(CC(C)C)NC(=O)OCc1ccccc1)C(=O)NC(Cc1c[nH]c2ccccc12)C(=O)O (centres unmarked) [Compound D, N-[2-[[hydroxy[2-[1-[4-methyl-1-oxo-2-[[(phenylmethoxy)carbonyl]amino]pentyl]amino]-2-phenylethyl]phosphinyl]methyl]-4-methyl-1-oxopentyl]-tryptophan]",ET-1 release following I/H (FIG. 6),"[1]; iv, 10 mg/kg",attenuation
CC(C)C(CP(=O)(O)C(Cc1ccccc1)NC(=O)C(CCCCN)NS(C)(=O)=O)C(=O)N[C@@H](Cc1c[nH]c2ccccc12)C(=O)O (some centres unmarked) [Compound C],elevation in PIP produced by I/H (FIG. 5),"[1]; iv, 10 mg/kg",attenuated
"CC(C)CC(CP(=O)(O)C(Cc1ccc2ccccc2c1)NC(=O)[C@H](CCCCNC(=O)OCc1ccccc1)NS(C)(=O)=O)C(=O)N[C@@H](Cc1c[nH]c2ccccc12)C(=O)O (stereo partly drawn) [Compound B, N-[2-[[hydroxy[1-[[2(S)-[(methylsulfonyl)amino]-1-oxo-6-[[phenylmethoxy)-carbonyl]amino]hexyl]amino]-2-(2-naphthalenyl)ethyl]phosphinyl]methyl]-4-methyl-1-oxopentyl]-L-tryptophan disodium salt]","effect on blood pressure response to BET-1 challenge, compared to vehicle (FIG. 2)","ECE [2]; 0.1 mg/kg/min infusion, result in words",does not have an effect
same,"lower blood pressure in response to the BET-1 challenge, compared to vehicle (FIG. 2)",ECE [2]; 0.3 mg/kg/min infusion,~22 mmHg
same,elevation in PIP produced by I/H (FIG. 4),"[1]; 3 mg/kg, 1 hour",attenuated
same,elevation in PIP produced by I/H (FIG. 4),"[1]; 10 mg/kg, 6 hours",attenuated
same,elevation in PIP produced by I/H (FIG. 4),"[1]; 30 mg/kg, 6 hours",attenuated
"CS(=O)(=O)N[C@@H](CCCCN)C(=O)N[C@@H](Cc1ccccc1)P(=O)(O)CC1(C(=O)N[C@@H](Cc2c[nH]c3ccccc23)C(=O)[O-])CCCC1.[Li+] [Example 5, N-[[1-[[hydroxy-[1(R)-[[6-amino-2(S)-[(methylsulfonyl)amino]-1-oxohexyl]-amino]-2-phenylethyl]phosphinyl]methyl]cyclopentyl]carbonyl]-L-tryptophan lithium salt]","lower blood pressure in response to the BET-1 challenge, compared to vehicle (FIG. 1)",ECE [2]; 0.1 mg/kg/min infusion,~15 mmHg
"ET-1: endothelin-1, peptide with potent vasoconstrictive and mitogenic activity (CSCSSLMDKECVYFCHLDIIW; ends and bridges not checked; cysteine pairing not given here; UniProt P05305 53-73, looked up)",times more potent than its precursor big-endothelin-1 (BET-1),[3],approximately 100 times
CS(=O)(=O)N[C@@H](CCCCN)C(=O)NC(Cc1ccc(O)cc1)P(=O)(O)CC1(C(=O)N[C@@H](Cc2c[nH]c3ccccc23)C(=O)O)CCCC1 (some centres unmarked) [Example 5B],IC50,"ECE [4]; 2 h preincubation at 4° C., 500 pM [125I]BET-1, table of examples, read-out: ECE IC50",100 nM
"CC(C)CC(CP(=O)(O)C(Cc1ccc2ccccc2c1)NC(=O)C(CCCCN)NS(C)(=O)=O)C(=O)N[C@@H](Cc1c[nH]c2ccccc12)C(=O)O (single isomer, unassigned)",IC50,"ECE [4]; table of additional compounds, read-out: IC50 (in vitro ECE inhibition activity)",68 nM

# Source: patent publication US5476847A, “Derivatives of phosphinic acid useful as endothelin converting enzyme inhibitors” (priority 1994, dated 1995)
